Results reported in patent US10988440B2, “FTO inhibitors” (National Institute of Biological Sciences, Beijing, priority 2015, dated 2021).
Where two headings read alike, the source gives them in different places.

How the values were obtained:
[1] = target: FTO (Homo sapiens, UniProt Q9C0B1); assay: demethylation reaction catalyzed by FTO (enzymatic inhibition, HPLC-MS/MS of N6-mA and A); assay type: biochemical
[2] = Rat liver microsome stability assay; assay type: in vitro ADME; details: liver microsomes, pH 7.4, rat liver microsome 1 mg/ml, test compound 2 μM, NADPH 1 mM, 37° C.
[3] = tested on: COMT enzyme; assay: COMT inhibition assay (reaction kinetic model, esculetin fluorescence); assay type: biochemical; details: normalized COMT/FTO value: (COMTcompound/FTOcompound)/(COMTentacapone/FTOentacapone)
[4] = target: T1, COMT enzyme (Homo sapiens, UniProt P21964); assay: as above; assay type: biochemical; details: for inhibition at 0.05 µM: read-out: COMT inhibition at 50 nM; for inhibition at 0.2 µM: read-out: COMT inhibition at 200 nM
T1 construct: COMT (μM); other: at 200 nM; other: at 50 nM; The reaction system contains 1U COMT enzyme, test article, 4 μM Esculetin, 0.6 mM AdoMet, 50 mM K3PO4, and 10 mM MgCl2
T1 sequence (P21964 1-271): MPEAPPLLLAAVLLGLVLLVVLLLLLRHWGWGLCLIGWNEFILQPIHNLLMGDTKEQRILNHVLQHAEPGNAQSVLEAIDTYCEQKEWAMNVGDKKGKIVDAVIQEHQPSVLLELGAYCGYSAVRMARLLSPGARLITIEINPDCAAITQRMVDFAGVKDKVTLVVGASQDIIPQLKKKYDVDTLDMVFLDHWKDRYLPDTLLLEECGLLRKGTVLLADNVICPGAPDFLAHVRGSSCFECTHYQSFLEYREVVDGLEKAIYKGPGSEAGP

[5] = exemplary IC50 data of representative compounds, read-out: Enzymatic inhibition (IC50)
[6] = selectivity table, read-out: FTO
[7] = read-out: Rat Liver Microsome CLint (μL/min/mg protein)
[8] = read-out: Rat Liver Microsome T½

Sequence of FTO (Q9C0B1 whole entry): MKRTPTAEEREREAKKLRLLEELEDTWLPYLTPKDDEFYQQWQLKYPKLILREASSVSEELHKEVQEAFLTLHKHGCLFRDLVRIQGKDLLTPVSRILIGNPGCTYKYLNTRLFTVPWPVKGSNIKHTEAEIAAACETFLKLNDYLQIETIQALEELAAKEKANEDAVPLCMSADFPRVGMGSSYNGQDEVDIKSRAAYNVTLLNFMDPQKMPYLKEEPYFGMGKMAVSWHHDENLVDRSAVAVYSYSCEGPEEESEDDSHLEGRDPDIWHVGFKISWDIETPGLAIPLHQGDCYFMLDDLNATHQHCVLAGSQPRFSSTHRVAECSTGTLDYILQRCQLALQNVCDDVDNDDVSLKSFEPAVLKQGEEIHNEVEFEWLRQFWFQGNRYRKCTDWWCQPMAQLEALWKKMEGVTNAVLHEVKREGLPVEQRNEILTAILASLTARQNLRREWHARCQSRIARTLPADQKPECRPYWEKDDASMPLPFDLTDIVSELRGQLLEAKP

IC50 [1, 5] [nM] | IC50 [1, 6] [nM] | microsomal CLint at 1 h, 2 µM [2, 7] [µL/min/mg] | half-life at 1 h, 2 µM [2, 8] [h] | Selectivity Index* [3] | IC50 [4] [nM] | microsomal CLint at 2 μM [2, 7] [µL/min/mg] | half-life at 2 μM [2, 8] [h] | inhibition at 0.05 µM [4] [%] | inhibition at 0.2 µM [4] [%] | Compound
< 1000 | 500 | 0.6 | 19.2 | 6.50 | 65 | – | – | – | – | N#C/C(C(=O)Nc1nccs1)=C(/O)c1cc(O)c(O)c([N+](=O)[O-])c1 [Compound 374, 2-cyano-3-(3,4-dihydroxy-5-nitrophenyl)-3-oxo-N-(thiazol-2-yl)propanamide]
< 1000 | 500 | 4.9 | 2.35 | 21.40 | 214 | – | – | – | – | CCN(CC)C(=O)/C(C#N)=C(\N)c1cc(O)c(O)c([N+](=O)[O-])c1 [Compound 347N]
< 1000 | 250 | 20.9 | 0.553 | 21.60 | 108 | – | – | – | – | N#C/C(=C\c1cc(O)c(O)c([N+](=O)[O-])c1)c1cnccn1 [Compound 396]
< 1000 | 500 | 2.9 | 3.98 | 10.50 | 105 | – | – | – | – | N#C/C(=C(/O)c1cc(O)c(O)c([N+](=O)[O-])c1)c1cnccn1 [Compound 523, 3-(3,4-dihydroxy-5-nitrophenyl)-3-hydroxy-2-(pyrazin-2-yl)acrylonitrile]
~1000 | 1000 | – | – | 8.10 | 162 | 12.2 | 0.947 | – | – | CCN(CC)C(=O)C(C#N)=C(NC)c1cc(O)c(O)c([N+](=O)[O-])c1 [Compound 347M, 2-cyano-3-(3,4-dihydroxy-5-nitrophenyl)-N,N-diethyl-3-(methylamino)acrylamide]
~1000 | 1000 | 310 | 0.0373 | – | – | – | – | 19 | 70 | N#CC(=Cc1cc(O)c(O)c([N+](=O)[O-])c1)c1ccccn1 (stereo in doubt) [Compound 315, (E)-3-(3,4-dihydroxy-5-nitrophenyl)-2-(pyridin-2-yl)acrylonitrile]
< 1000 | 750 | 1.1 | 10.5 | – | – | – | – | -3 | 33 | N#C/C(=C(/O)c1cc(O)c(O)c([N+](=O)[O-])c1)c1cnc(C(=O)O)cn1 [Compound 697, (E)-5-(1-cyano-2-(3,4-dihydroxy-5-nitrophenyl)-2-hydroxyvinyl) pyrazine-2-carboxylic Acid]
~1000 | 1000 | 266 | 0.0435 | – | – | – | – | 12 | 36 | N#C/C(=C\c1cc(O)c(O)c([N+](=O)[O-])c1)c1nccs1 [Compound 390]
< 1000 | 750 | 10.3 | 1.12 | – | – | – | – | 35 | 64 | N#C/C(C(=O)N1CCCCC1)=C(/N)c1cc(O)c(O)c([N+](=O)[O-])c1 [Compound 661N, 3-amino-3-(3,4-dihydroxy-5-nitrophenyl)-2-(piperidine-1-carbonyl)acrylonitrile]
~1000 | 1000 | 2.2 | 5.25 | – | – | – | – | 12 | 26 | N#C/C(C(=O)N1CCCCC1)=C(/O)c1cc(O)c(O)c([N+](=O)[O-])c1 [Compound 661, (Z)-3-(3,4-dihydroxy-5-nitrophenyl)-3-hydroxy-2-(piperidine-1-carbonyl)acrylonitrile]
< 1000 | 750 | 9 | 1.28 | – | – | – | – | 33 | 80 | N#C/C(=C(/O)c1cc(O)c(O)c([N+](=O)[O-])c1)c1ccccn1 [Compound 351, 3-(3,4-dihydroxy-5-nitrophenyl)-3-oxo-2-(pyridin-2-yl)propanenitrile]
< 1000 | 750 | – | – | 237.33 | 3560 | – | – | – | – | N#C/C(C(=O)N1CCC1)=C(/O)c1cc(O)c(O)c([N+](=O)[O-])c1 [Compound 701, (Z)-2-(azetidine-1-carbonyl)-3-(3,4-dihydroxy-5-nitrophenyl)-3-hydroxyacrylonitrile]
< 1000 | 500 | 10.9 | 1.06 | – | – | – | – | 39 | 74 | N#C/C(=C(/O)c1cc(O)c(O)c([N+](=O)[O-])c1)c1ccncn1 [Compound 525, (E)-3-(3,4-dihydroxy-5-nitrophenyl)-3-hydroxy-2-(pyrimidin-4-yl)acrylonitrile]
~1000 | 1000 | 7.4 | 1.56 | – | – | – | – | 25 | 54 | N#C/C(=C\c1cc(O)c(O)c([N+](=O)[O-])c1)C(=O)Nc1nccs1 [Compound 331, (E)-2-cyano-3-(3,4-dihydroxy-5-nitrophenyl)-N-(thiazol-2-yl)acrylamide]
~1000 | 1500 | 0.5 | 23.1 | – | – | – | – | 9 | 24 | N#C/C(=C(/O)c1cc(O)c(O)c([N+](=O)[O-])c1)c1nccs1 [Compound 503, 3-(3,4-dihydroxy-5-nitrophenyl)-3-oxo-2-(thiazol-2-yl)propanenitrile]
< 1000 | 300 | 1.6 | 7.22 | 4.00 | 24 | – | – | – | – | N#C/C(=C\c1cc(O)c(O)c([N+](=O)[O-])c1)c1cnc(C(=O)O)cn1 [Compound 655, (Z)-5-(1-cyano-2-(3,4-dihydroxy-5-nitrophenyl)vinyl)pyrazine-2-carboxylic Acid]
